Measurements from publication PMC9883482, “TPX2 enhances the transcription factor activation of PXR and enhances the resistance of hepatocellular carcinoma cells to antitumor drugs” (Cell Death & Disease, 2023).

Tests used:
HepG2 cells [1] = assay: MTT cell survival examination; assay type: cell-based; conditions: Homo sapiens, HepG2, 48 h
Protocol: (§1) In the process of dissolving these pure drug powders, stirring, vortexing, and ultrasonic vibration were used to assist dissolution [17, 18]. After a drug was fully dissolved, Dulbecco’s modified Eagle’s medium (DMEM) without fetal bovine serum (FBS) was used to dilute the drug dissolved in DMSO. For doxorubicin, we used DMEM without FBS to dissolve the drug. When performing cell viability experiments (tetrazolium [MTT] assays), these drugs were diluted.
(§2) The antitumor activity of antitumor drugs injuring HCC cells was examined by using MTT assay. After culturing the HCC cells, transfection experiments were performed, and the cells were then seeded in 96-well cell culture plates (about 8000 cells per well). […] After the cells were treated with the drug for about 48 h, a dose of […] tetrazolium (MTT) reagent was added, and cells with the MTT reagent were incubated for 5 to 6 h. After incubation with the MTT was complete, all liquid in the 96-well cell culture plate was discarded, and about 100 μl of DMSO was added to each well to dissolve the cell samples. During the process of lysing the cell samples, the cell culture plate was shaken for 15 minutes to completely lyse the cells. After the lysis step was complete, the cell culture plate was centrifuged at 12,000 rpm at 4 °C, and the supernatant was collected for evaluation.
(§3) All statistical analyses in the presence work were performed using the GraphPad 8.0 (GraphPad Software Corporation, Armonk, NY, USA). […] For the survival analysis data, the survival curves were analyzed by the log-rank (Mantel–Cox) test to detect the P-value of the survival curve, the median survival time, and the 95% confidence interval (CI). For the co-relationship analysis, the data were analyzed by linear regression to determine the overall trend of a group of data points. […] If the slope was positive, the horizontal coordinate was positively related to the vertical coordinate, and if the slope was negative, the horizontal coordinate was negatively related to the vertical coordinate. For the multi-grouped data, the ordinary one-way analysis of variance (ANOVA) and multiple comparison methods were used. An ANOVA was used to examine whether any difference between groups could be detected. The multiple comparisons (t-test) was used to detect differences between pairs of data.

MHCC97-H cells = assay: MTT cell survival examination; assay type: cell-based; conditions: Homo sapiens, MHCC97H, 48 h
Protocol: as §1, §2, §3

MHCC97-L cells = assay: MTT cell survival examination; assay type: cell-based; conditions: Homo sapiens, MHCC97L, 48 h, median (95% CI)
Protocol: as §1, §2, §3

LS180 cells = assay: MTT cell survival examination; assay type: cell-based; conditions: Homo sapiens
Protocol: as §2, §3

[2] = Blood concentration assay of sorafenib, mice bearing MHCC97-L tumours; assay type: in vivo; conditions: nude, mouse, plasma, 2 mg/kg, 2 mg/kg oral
Protocol: Table notes: After overexpression of TPX2 in MHCC97-L cells, the cells were inoculated with nude mice to form subcutaneous tumour tissue (the volume of tumour tissue was approximately 1 g) and then given 2 mg/kg via oral administration. After overexpression of TPX2 in MHCC97-L cells, the cells were inoculated into nude mice to form subcutaneous tumour tissue and then in situ liver tumour tissue was established. 2mg/kg via oral administration was given to nude mice. Thereafter, blood levels of sorafenib were measured.

[3] = Blood concentration assay of sorafenib, mice bearing MHCC97-H tumours; assay type: in vivo; conditions: nude, mouse, plasma, 2 mg/kg, 2 mg/kg oral
Protocol: Table notes: After knockdown of TPX2 in MHCC97-H cells, the cells were inoculated with nude mice to form subcutaneous tumour tissue (the volume of tumour tissue was approximately 1 g) and then given 2 mg/kg via oral administration. After knockdown TPX2 in MHCC97-H cells, the cells were inoculated into nude mice to form subcutaneous tumour tissue and then in situ liver tumour tissue was established. 2mg/kg via oral administration was given to nude mice. Thereafter, blood levels of sorafenib were measured.

HepG2 cells [4] = assay: Subcutaneous tumor model; assay type: in vivo; conditions: nude mice; 2.0, 1.0 or 0.5 mg/kg oral
From the text: In the process of dissolving these pure drug powders, stirring, vortexing, and ultrasonic vibration were used to assist dissolution.
The HCC cells were transfected with plasmids and then injected into the subcutaneous position of nude mice (the HepG2 cells were transfected with TPX2 for TPX2 overexpression and the siRNA of TPX2 for TPX2 knockdown). After the cells in the bottom of the dish were digested with trypsin, the cells were gently mixed with sterilized PBS to prepare a cell suspension. The resulting cell suspension was directly injected subcutaneously into nude mice using a pre-sterilized disposable medical syringe with a capacity of 1 ml. After that step, animal status was observed every day, and the tumor tissue was collected after 4 to 6 weeks of growth to detect the tumor volume (using a Vernier caliper to measure the long and short axes of the tumor tissue after which the tumor volume was calculated according to the formula: short axis × short axis × long axis/2) and weight (accurately weighed with a 1/10000th precision balance). Finally, the tumor tissue was ground with liquid nitrogen, and qPCR was then used to measure the mRNA expression level of the corresponding genes. The intrahepatic tumor model and the in vivo imaging of small-animals-related experiments were performed according to our previous publications. […]

[5] = oral, Subcutaneous MHCC97-L Control tumour
[6] = oral, Subcutaneous MHCC97-L TPX2 tumour
[7] = po, intrahepatic MHCC97-L Control tumour
[8] = po, intrahepatic MHCC97-L TPX2 tumour
[9] = oral, Subcutaneous MHCC97-H Control tumour
[10] = oral, Subcutaneous MHCC97-H siTPX2 tumour
[11] = po, intrahepatic MHCC97-H Control tumour
[12] = po, intrahepatic MHCC97-H siTPX2 tumour

**Q.** Which IC50 (HepG2 cells [1]; HepG2, Control, median (95% CI)) does the source give for `CNC(=O)c1cc(Oc2ccc(NC(=O)Nc3ccc(Cl)c(C(F)(F)F)c3)cc2)ccn1` [sorafenib] here?
**A.** The IC50 was 1270 nM.

**Q.** What about the IC50 (HepG2 cells [1]; HepG2, TPX2 overexpression, median (95% CI)) of the same compound?
**A.** The IC50 was 4680 nM.

**Q.** What about the IC50 (HepG2 cells [1]; HepG2, siTPX2, median (95% CI)) of the same compound?
**A.** Its IC50 is 500 nM.

**Q.** What about the IC50 (MHCC97-H cells; Control, median (95% CI)) of the same compound?
**A.** Its IC50 is 1160 nM.

**Q.** What about the IC50 (MHCC97-H cells; siTPX2, median (95% CI)) of the same compound?
**A.** Its IC50 is 470 nM.

**Q.** What about the IC50 (MHCC97-L cells; Control) of the same compound?
**A.** Its IC50 is 1860 nM.

**Q.** And the IC50 (MHCC97-L cells; TPX2 overexpression)?
**A.** Its IC50 is 4840 nM.

**Q.** And the IC50 (LS180 cells; LS180, LS180, TPX2 knockdown)?
**A.** Its IC50 is 250 nM.

**Q.** And the IC50 (LS180 cells; LS180, LS180, TPX2 overexpression)?
**A.** Its IC50 is 4300 nM.

**Q.** And the IC50 (LS180 cells; LS180, LS180, control group)?
**A.** Its IC50 is 910 nM.

**Q.** What about the concentration at 2 h [2, 5] of the same compound?
**A.** Its concentration at 2 h is 17.4 ± 9.73 ng/mL.

**Q.** What about the concentration at 2 h [2, 6] of the same compound?
**A.** The concentration at 2 h was 13.9 ± 6.77 ng/mL.

**Q.** What about the concentration at 8 h [2, 5] of the same compound?
**A.** The concentration at 8 h was 142 ± 26.8 ng/mL.

**Q.** And the concentration at 8 h [2, 6]?
**A.** The concentration at 8 h was 122 ± 27.9 ng/mL.

**Q.** What about the concentration at 20 h [2, 5] of the same compound?
**A.** Its concentration at 20 h is 112 ± 30.5 ng/mL.

**Q.** What about the concentration at 20 h [2, 6] of the same compound?
**A.** Its concentration at 20 h is 99.8 ± 19.6 ng/mL.

**Q.** What about the concentration at 40 h [2, 5] of the same compound?
**A.** The concentration at 40 h was 44.4 ± 16.9 ng/mL.

**Q.** What about the concentration at 40 h [2, 6] of the same compound?
**A.** The concentration at 40 h was 29.6 ± 17.2 ng/mL.

**Q.** What about the concentration at 2 h [2, 7] of the same compound?
**A.** Its concentration at 2 h is 17.9 ± 8.39 ng/mL.

**Q.** And the concentration at 2 h [2, 8]?
**A.** The concentration at 2 h was 18.1 ± 9.63 ng/mL.

**Q.** What about the concentration at 8 h [2, 7] of the same compound?
**A.** Its concentration at 8 h is 138 ± 27.9 ng/mL.

**Q.** And the concentration at 8 h [2, 8]?
**A.** The concentration at 8 h was 144 ± 30 ng/mL.

**Q.** What about the concentration at 20 h [2, 7] of the same compound?
**A.** The concentration at 20 h was 117 ± 29.9 ng/mL.

**Q.** What about the concentration at 20 h [2, 8] of the same compound?
**A.** The concentration at 20 h was 115 ± 29.9 ng/mL.

**Q.** And the concentration at 40 h [2, 7]?
**A.** The concentration at 40 h was 51.6 ± 17.2 ng/mL.

**Q.** And the concentration at 40 h [2, 8]?
**A.** The concentration at 40 h was 41.4 ± 19.1 ng/mL.

**Q.** What about the concentration at 2 h [3, 9] of the same compound?
**A.** Its concentration at 2 h is 23.3 ± 16.6 ng/mL.

**Q.** And the concentration at 2 h [3, 10]?
**A.** The concentration at 2 h was 33.2 ± 19.4 ng/mL.

**Q.** What about the concentration at 8 h [3, 9] of the same compound?
**A.** The concentration at 8 h was 152 ± 25.4 ng/mL.

**Q.** And the concentration at 8 h [3, 10]?
**A.** Its concentration at 8 h is 170 ± 32.3 ng/mL.

**Q.** What about the concentration at 20 h [3, 9] of the same compound?
**A.** Its concentration at 20 h is 123 ± 23.6 ng/mL.

**Q.** What about the concentration at 20 h [3, 10] of the same compound?
**A.** The concentration at 20 h was 142 ± 21.4 ng/mL.

**Q.** What about the concentration at 40 h [3, 9] of the same compound?
**A.** Its concentration at 40 h is 63 ± 14.5 ng/mL.

**Q.** What about the concentration at 40 h [3, 10] of the same compound?
**A.** The concentration at 40 h was 77.5 ± 23.5 ng/mL.

**Q.** And the concentration at 2 h [3, 11]?
**A.** The concentration at 2 h was 22.5 ± 11.8 ng/mL.

**Q.** What about the concentration at 2 h [3, 12] of the same compound?
**A.** The concentration at 2 h was 24.3 ± 14.2 ng/mL.

**Q.** What about the concentration at 8 h [3, 11] of the same compound?
**A.** Its concentration at 8 h is 146 ± 28.7 ng/mL.

**Q.** And the concentration at 8 h [3, 12]?
**A.** The concentration at 8 h was 152 ± 22.1 ng/mL.

**Q.** And the concentration at 20 h [3, 11]?
**A.** The concentration at 20 h was 120 ± 32 ng/mL.

**Q.** What about the concentration at 20 h [3, 12] of the same compound?
**A.** Its concentration at 20 h is 127 ± 31.2 ng/mL.

**Q.** What about the concentration at 40 h [3, 11] of the same compound?
**A.** The concentration at 40 h was 46.8 ± 31.9 ng/mL.

**Q.** And the concentration at 40 h [3, 12]?
**A.** The concentration at 40 h was 57.8 ± 27.6 ng/mL.

**Q.** And the “subcutaneous growth of HepG2 cells (tumor volumes/weights)” value (HepG2 cells [4])?
**A.** Its value is “inhibited the subcutaneous growth of HepG2 cells in a dose-dependent manner”.
